Experimental data published in publication PMC10046377, “Inhibitors of the Oncogenic PA2G4-MYCN Protein-Protein Interface” (Cancers, 2023).

Experiments:
[1] = test system: Kelly cells; assay: Alamar Blue cell viability assay, Kelly; format: cell-based; conditions: Homo sapiens, MYCN amplified neuroblastoma cell line
From the text: (§1) The MYCN amplified neuroblastoma cell line SK-N-BE(2)-C was kindly provided by Professor June Biedler (Memorial Sloan Kettering Cancer Centre, New York, NY, USA), and Kelly was obtained from European Collection of Cell Cultures. The two normal lung fibroblast cell lines (MRC-5 and WI-38) were purchased from ATCC. SK-N-BE(2)-C shMYCN#2 doxycycline-inducible cell and Kelly shMYCN#2 doxycycline-inducible cell were custom-made by GenScript (Piscataway, NJ, USA). SK-N-BE(2)-C, SK-N-BE(2)-C shMYCN#2, and SHEP MYCN3 doxycycline-inducible cells were maintained in Dulbecco’s modified Eagle’s medium (DMEM) (Invitrogen, Life Technologies, Waltham, MA, USA) with 10% foetal calf serum (FCS). Kelly and Kelly shMYCN#2 doxycycline-inducible cell were cultured in Roswell Park Memorial Institute (RPMI) 1640 (Invitrogen, Life Technologies) with 10% FCS. MRC-5 and WI-38 were cultured in Alpha-MEM media (Invitrogen, Life Technologies) with 10% FCS. All cells were not cultured for more than 2 months. All used cell lines were authenticated by Cell Bank Australia (Westmead, NSW, Australia) as being free from mycoplasma, and cultured at 37 °C and 5% CO2 in a humidifier incubator.
(§2) Cell viability was determined by the Alamar Blue assay (75 mg resazurin, 12.5 mg methylene blue, 164.5 mg potassium hexacyanoferrate (III), 211 mg potassium hexacyanoferrate (II) trihydrate in 500 mL of phosphate buffered saline). After 6 h incubation with Alamar Blue, the change of fluorescence was measured by Victor 3 multilabel Plate Reader (Perkin Elmer Australia, Melburne, Australia) at an excitation wavelength of 560 nm and an emission wavelength of 590 nm.
(§3) We have shown that the PA2G4 protein increased the half-life of the oncoprotein MYCN through direct binding, and competitive chemical inhibition of this bond by WS6 reduced tumorigenicity both in vitro and in vivo [11]. […] Here, we explored the structure–activity relationship (SAR) of WS6 analogue compounds with the aim to increase efficacy and reduce toxicity. […] The in vitro cytotoxicity of these 14 compounds were measured by cell viability assays using Alamar Blue in MYCN amplified human neuroblastoma (SK-N-BE(2)-C and Kelly) cell lines compared to non-malignant (WI-38, MRC-5) myofibroblast cell lines (Figure 1B,C and Supplementary Figure S1A).

[2] = test system: MYCN; assay: Western blot of MYCN protein level; format: cell-based, human; conditions: Kelly and SK-N-BE(2)-C cells; #5333/#5338: 48 h, 10–30 μM
Procedure: (§4) Protein was extracted from cell pellets using RIPA buffer (Sigma) with 10% protease inhibitor (Sigma, Sydney, Australia). Quantification of proteins was conducted using Pierce BCA protein assay kit (Thermo Scientific), according to manufacturer’s instructions. A total of 30–50 μg protein samples were loaded onto Criterion TGX 10% precast gel (Bio-Rad) or NuPAGE™ 4–12% Mini Protein Gel (Invitrogen, Life technologies) and transferred to a nitrocellulose membrane (Bio-Rad). The membrane was blocked in 5% skim milk in Tris-buffered saline with Tween-20 (20 mM Tris-HCl (pH 7.6), 137 mM NaCl, 0.1% Tween-20) for an hour before incubation at 4 °C overnight with the following primary antibodies: mouse anti-MYCN(1:2000, Santa-Cruz, Cat# sc-53993), rabbit anti-PA2G4 (1:2000, Atlas Antibodies, Cat# HPA016484), rabbit anti-PARP (1:1000, Cell Signalling Technologies, Danvers, MA, USA, Cat# 9542), rabbit anti-Caspase-3 (1:500, Cell Signalling Technologies, Cat# 9662), mouse anti-Bcl-2 (1:1000, Cell Signalling Technologies, Cat# 15071), rabbit anti-Bax (1:1000, Cell Signalling Technologies, Cat# 2772), mouse anti-Vinculin (1:2000, Sigma, Cat# V9131), mouse anti-GAPDH (1:2000, Santa-cruz, Cat# sc-365062), rabbit anti-β-actin (1:5000, Sigma, Cat# SAB2100037), rabbit anti-GATA2 (1:1000, Cell Signalling Technologies, Cat# 4595), mouse anti-Flag/DYKDDDDK tag (1:1000, Cell Signalling Technologies, Cat# 8146). Anti-mouse or anti-rabbit horseradish peroxidase secondary antibodies (1:5000, Life technologies, Cat# 31430, 31460) were added and incubated for 2 h at room temperature. Immunoblots were visualised by Clarity ECL reagent (Bio-Rad) and ChemiDoc MP Imaging System (Bio-Rad). Quantification of protein expression was measured by Image Lab software (Bio-Rad) and normalised to loading control.
(§5) Next, we examined whether #5333 and #5338 treatment for 48 h affected the levels of WS6 target proteins, PA2G4, and MYCN in neuroblastoma cells. […] Cell viability was measured following #5333 and #5338 treatments for 48–72 h. […] Cell viability was measured following #5333, #5338, or WS6 treatments for 72 h.

[3] = test system: PA2G4; assay: Western blot of PA2G4 protein level; format: cell-based, human; conditions: Kelly and SK-N-BE(2)-C cells; #5333/#5338: 48 h, seen more consistently at 30 μM, with the exception of #5333 in SK-N-BE(2)-C
Procedure: as §4, §5

[4] = test system: neuroblastoma cells (Kelly, SK-N-BE(2)-C) compared to non-malignant myofibroblasts (WI-38, MRC-5); assay: Therapeutic window, neuroblastoma cells versus non-malignant myofibroblasts; format: cell-based, human; conditions: non-malignant myofibroblast IC50 versus neuroblastoma cell IC50
Procedure: as §2, §3

[5] = test system: MRC-5 cells; assay: Alamar Blue cell viability assay, MRC-5 non-malignant myofibroblasts; format: cell-based; conditions: Homo sapiens, MRC5
From the text: as §1, §2, §3

Compound	IC50 [1]	MYCN protein levels (Western blot) [2]	PA2G4 protein levels (Western blot) [3]	Therapeutic window (fold difference) [4]	IC50 [5]
Cc1cccc(Oc2cc(N3CCC(C(=O)NCc4cccc(C(F)(F)F)c4)CC3)ncn2)c1C [#3567]	29 µM	significantly reduced	significantly reduced	2.7 fold	80 µM
Cc1cccc(Oc2cc(N3CCC(C(=O)NCc4cccc(Br)c4)CC3)ncn2)c1C [#5333]	28.6 µM	significantly reduced MYCN levels	Reductions in PA2G4 levels	3.6 fold	100 µM
Cc1cccc(Oc2cc(N3CCC(C(=O)N[C@@H](C)CCc4ccccc4)CC3)ncn2)c1C [#5338]	30 µM	significantly reduced MYCN levels	Reductions in PA2G4 levels	3.8 fold	100 µM
